{
  "source": "patent US8268795B2",
  "about": "(priority 2005, dated 2012)",
  "format_in_all_cases": "cell-based, rabbit",
  "key": {"[1]": {"target": "T1, VDCC currents in cerebral artery myocytes (Oryctolagus cuniculus, UniProt Q02343)", "T1 construct": "Vascular smooth muscle cells were enzymatically isolated from cerebral arteries as previously described; endogenous in cells; host or cells: freshly isolated cerebral artery myocytes from control and SAH (5 days post-surgery) New Zealand white rabbits", "T1 sequence (Q02343 whole entry)": "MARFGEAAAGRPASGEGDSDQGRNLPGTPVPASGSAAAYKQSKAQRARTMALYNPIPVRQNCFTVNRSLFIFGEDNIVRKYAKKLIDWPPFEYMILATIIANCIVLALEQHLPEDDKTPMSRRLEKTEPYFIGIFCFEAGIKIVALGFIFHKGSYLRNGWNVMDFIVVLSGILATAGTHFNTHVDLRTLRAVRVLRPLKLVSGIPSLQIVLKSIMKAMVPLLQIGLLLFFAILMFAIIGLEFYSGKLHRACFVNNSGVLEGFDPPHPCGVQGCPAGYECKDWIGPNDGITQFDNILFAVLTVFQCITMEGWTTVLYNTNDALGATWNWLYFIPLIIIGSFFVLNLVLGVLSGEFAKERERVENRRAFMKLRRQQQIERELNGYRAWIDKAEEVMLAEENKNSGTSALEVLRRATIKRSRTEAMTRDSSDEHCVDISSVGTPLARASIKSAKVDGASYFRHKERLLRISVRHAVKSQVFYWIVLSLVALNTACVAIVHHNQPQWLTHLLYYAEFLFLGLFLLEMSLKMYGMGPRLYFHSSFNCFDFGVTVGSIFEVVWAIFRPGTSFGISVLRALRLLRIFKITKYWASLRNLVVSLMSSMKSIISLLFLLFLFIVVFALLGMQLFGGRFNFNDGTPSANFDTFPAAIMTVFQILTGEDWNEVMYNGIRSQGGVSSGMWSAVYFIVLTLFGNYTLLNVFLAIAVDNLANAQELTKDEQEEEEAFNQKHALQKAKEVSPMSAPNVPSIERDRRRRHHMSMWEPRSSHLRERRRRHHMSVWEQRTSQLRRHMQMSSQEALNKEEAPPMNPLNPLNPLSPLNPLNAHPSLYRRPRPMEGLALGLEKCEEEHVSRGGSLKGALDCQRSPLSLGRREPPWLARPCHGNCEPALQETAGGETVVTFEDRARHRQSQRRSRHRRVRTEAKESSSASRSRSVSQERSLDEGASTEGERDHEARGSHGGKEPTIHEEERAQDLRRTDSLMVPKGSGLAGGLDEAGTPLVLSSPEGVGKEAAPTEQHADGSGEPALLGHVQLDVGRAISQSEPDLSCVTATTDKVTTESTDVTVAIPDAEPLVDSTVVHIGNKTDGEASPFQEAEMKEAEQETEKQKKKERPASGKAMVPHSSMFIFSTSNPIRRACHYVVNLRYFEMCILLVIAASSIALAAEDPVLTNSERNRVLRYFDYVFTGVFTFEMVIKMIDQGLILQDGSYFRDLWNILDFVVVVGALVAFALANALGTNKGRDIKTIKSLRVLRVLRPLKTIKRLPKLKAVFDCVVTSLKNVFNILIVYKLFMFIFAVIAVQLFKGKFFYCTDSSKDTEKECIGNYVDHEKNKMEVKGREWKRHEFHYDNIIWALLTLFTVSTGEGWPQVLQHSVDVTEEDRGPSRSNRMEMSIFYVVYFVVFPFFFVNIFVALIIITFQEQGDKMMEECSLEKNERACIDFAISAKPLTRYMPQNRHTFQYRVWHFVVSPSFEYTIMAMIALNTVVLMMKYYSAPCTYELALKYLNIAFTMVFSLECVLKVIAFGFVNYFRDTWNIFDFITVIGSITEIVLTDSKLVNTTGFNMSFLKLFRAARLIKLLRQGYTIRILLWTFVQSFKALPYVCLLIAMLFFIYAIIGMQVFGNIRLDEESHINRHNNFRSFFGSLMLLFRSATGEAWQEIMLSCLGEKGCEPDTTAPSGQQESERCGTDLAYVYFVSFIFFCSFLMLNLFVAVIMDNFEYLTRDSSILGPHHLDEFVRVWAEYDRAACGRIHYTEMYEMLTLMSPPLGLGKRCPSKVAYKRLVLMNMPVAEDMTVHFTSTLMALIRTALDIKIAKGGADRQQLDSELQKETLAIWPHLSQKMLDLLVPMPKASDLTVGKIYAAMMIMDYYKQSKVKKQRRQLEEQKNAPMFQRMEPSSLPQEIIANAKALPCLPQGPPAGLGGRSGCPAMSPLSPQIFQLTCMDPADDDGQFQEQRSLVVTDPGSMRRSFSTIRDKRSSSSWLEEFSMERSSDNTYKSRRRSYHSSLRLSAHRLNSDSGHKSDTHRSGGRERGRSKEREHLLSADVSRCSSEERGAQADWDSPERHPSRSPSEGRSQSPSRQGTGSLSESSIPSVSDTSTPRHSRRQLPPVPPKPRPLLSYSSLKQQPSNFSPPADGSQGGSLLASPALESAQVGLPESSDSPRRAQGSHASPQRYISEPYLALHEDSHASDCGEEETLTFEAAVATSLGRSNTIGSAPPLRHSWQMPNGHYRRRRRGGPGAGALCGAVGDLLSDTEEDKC"}, "[2]": {"target": "T2, VDCC currents in cerebral artery myocytes (Oryctolagus cuniculus, UniProt P15381)", "T2 construct": "Vascular smooth muscle cells were enzymatically isolated from cerebral arteries as previously described; endogenous in cells; host or cells: freshly isolated cerebral artery myocytes from control and SAH (5 days post-surgery) New Zealand white rabbits", "T2 sequence (P15381 1-2166 isoform P15381-4)": "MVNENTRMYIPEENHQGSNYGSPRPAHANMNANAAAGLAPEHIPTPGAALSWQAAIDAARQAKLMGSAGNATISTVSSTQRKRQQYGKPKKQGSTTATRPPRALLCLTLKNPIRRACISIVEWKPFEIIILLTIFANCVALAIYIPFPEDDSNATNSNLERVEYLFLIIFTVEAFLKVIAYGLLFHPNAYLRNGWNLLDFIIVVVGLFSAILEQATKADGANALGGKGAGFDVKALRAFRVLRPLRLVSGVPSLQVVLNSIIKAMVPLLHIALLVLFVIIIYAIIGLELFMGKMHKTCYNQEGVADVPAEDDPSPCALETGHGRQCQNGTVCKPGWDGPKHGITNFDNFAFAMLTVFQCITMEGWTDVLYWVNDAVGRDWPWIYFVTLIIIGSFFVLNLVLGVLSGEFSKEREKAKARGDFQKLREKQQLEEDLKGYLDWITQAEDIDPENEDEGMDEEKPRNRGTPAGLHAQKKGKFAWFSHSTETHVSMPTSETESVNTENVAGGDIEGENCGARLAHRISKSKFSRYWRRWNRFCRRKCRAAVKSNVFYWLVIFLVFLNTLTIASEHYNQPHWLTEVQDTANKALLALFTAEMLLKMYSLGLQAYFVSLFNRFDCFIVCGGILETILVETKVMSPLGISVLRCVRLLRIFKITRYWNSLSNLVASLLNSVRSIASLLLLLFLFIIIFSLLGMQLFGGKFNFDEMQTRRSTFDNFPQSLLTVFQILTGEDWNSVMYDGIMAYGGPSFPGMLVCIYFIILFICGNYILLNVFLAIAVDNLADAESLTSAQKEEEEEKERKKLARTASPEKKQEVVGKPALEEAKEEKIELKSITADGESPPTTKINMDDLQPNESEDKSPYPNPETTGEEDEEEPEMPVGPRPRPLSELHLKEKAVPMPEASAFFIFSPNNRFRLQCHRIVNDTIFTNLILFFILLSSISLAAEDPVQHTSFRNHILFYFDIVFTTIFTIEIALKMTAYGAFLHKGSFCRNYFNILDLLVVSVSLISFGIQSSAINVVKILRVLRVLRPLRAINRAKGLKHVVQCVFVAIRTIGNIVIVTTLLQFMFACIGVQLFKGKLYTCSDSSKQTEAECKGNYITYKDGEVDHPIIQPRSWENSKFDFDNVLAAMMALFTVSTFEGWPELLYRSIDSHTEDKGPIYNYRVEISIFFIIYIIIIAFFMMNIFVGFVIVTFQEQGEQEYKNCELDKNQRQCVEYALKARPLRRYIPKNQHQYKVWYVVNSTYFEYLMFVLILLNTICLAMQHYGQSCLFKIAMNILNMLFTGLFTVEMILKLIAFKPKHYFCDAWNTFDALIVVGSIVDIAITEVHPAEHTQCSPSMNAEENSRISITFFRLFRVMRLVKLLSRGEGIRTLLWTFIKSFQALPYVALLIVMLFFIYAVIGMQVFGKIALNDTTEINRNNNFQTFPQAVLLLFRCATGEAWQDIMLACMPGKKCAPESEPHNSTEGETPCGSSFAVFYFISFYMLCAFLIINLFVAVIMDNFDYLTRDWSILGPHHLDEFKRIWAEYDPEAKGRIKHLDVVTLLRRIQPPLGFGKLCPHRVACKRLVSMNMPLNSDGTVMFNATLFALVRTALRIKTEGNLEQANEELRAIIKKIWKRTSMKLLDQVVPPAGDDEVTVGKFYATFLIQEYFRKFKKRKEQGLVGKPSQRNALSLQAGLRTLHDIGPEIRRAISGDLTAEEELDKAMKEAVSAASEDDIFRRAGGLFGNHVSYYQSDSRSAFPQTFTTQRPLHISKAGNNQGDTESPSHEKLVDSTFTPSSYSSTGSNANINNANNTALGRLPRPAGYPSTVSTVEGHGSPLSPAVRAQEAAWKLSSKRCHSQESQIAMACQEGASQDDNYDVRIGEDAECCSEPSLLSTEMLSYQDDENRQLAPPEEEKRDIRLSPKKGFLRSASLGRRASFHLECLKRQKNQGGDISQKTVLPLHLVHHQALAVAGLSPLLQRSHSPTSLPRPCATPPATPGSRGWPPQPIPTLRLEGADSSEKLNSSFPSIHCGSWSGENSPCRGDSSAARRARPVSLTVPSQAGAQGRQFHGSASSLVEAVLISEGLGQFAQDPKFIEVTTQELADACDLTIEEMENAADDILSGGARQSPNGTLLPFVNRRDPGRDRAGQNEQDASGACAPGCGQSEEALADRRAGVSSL"}, "[3]": {"test_system": "small diameter cerebral arteries constricted by 60 mmol/L K+", "assay": "tissue or blood"}, "[4]": {"test_system": "small diameter cerebral arteries from control and SAH rabbits"}, "[5]": {"test_system": "VDCC currents in cerebral artery myocytes"}},
  "note": "Counter-ions that a name gives are not always drawn. Like-named read-outs stand apart in the source and are kept apart here.",
  "data": [
    {"compound": "[Cd]", "note": "[cadmium]", "values": [
      {"measurement": "VDCC currents resistant to nifedipine (10 μmol/L)", "setting": "[1]; SAH myocytes, cadmium 200 μmol/L, n=4, data not shown", "value": "abolished"}
    ]},
    {"compound": "H-Gly-Val-Asp-Lys-Ala-Gly-Cys-Arg-Tyr-Met-Phe-Gly-Gly-Cys-Ser-Val-Asn-Asp-Asp-Cys-Cys-Pro-Arg-Leu-Gly-Cys-His-Ser-Leu-Phe-Ser-Tyr-Cys-Ala-Trp-Asp-Leu-Thr-Phe-Ser-Asp-OH (H-GVDKAGCRYMFGGCSVNDDCCPRLGCHSLFSYCAWDLTFSD-OH; cysteine pairing not given here) [SNX-482]", "values": [
      {"measurement": "effect on VDCC currents", "setting": "[2]; myocytes from control animals, SNX-482 200 nmol/L", "value": "no effect"},
      {"measurement": "reduction of VDCC currents", "setting": "[1]; myocytes from SAH animals, SNX-482 200 nmol/L", "value": "approximately 30%"},
      {"measurement": "dilation of cerebral arteries in the absence of diltiazem", "setting": "[3]; arteries constricted with 60 mmol/L K+, SNX-482 220 nmol/L alone", "value": "can dilate"},
      {"measurement": "residual constriction observed in the presence of diltiazem", "setting": "[3]; arteries cultured with oxyhemoglobin for 5 days, 60 mM K+, 1 mmol/L diltiazem, then SNX-482 220 nmol/L", "value": "effectively reversed"},
      {"measurement": "dilation of pressurized cerebral arteries", "setting": "[4]; arteries from SAH animals, pressurized to 100 mmHg", "value": "approximately 30%"},
      {"measurement": "effect on pressurized arteries", "setting": "[4]; arteries from control animals, pressurized to 100 mmHg", "value": "no significant effect"}
    ]},
    {"compound": "COc1ccc([C@@H]2Sc3ccccc3N(CCN(C)C)C(=O)[C@@H]2OC(C)=O)cc1", "note": "(relative stereo) [diltiazem, benzothiazepin-4(5H)-one, 3-(acetyloxy)-5-[2-(dimethylamino)ethyl]-2,3-dihydro-2-(4-methoxyphenyl)-,(+)-cis-,monohydrochloride]", "values": [
      {"measurement": "current resistant to the L-type VDCC antagonist", "setting": "[5]", "value": "approximately 20%"},
      {"measurement": "block of membrane currents", "setting": "[2]", "value": "completely blocked"},
      {"measurement": "IC50", "setting": "[3]; Oryctolagus cuniculus, 120 h", "value": "16.9 ± 6.9", "unit": "µM"},
      {"measurement": "EC50", "setting": "[3]; Oryctolagus cuniculus, B164, 0 h, read-out: EC50 of diltiazem treatment of K+ induced constricted arteries, Day 0, −Oxy Hb", "value": "1.02 ± 0.07", "unit": "µM"},
      {"measurement": "EC50", "setting": "[3]; Oryctolagus cuniculus, B164, 24 h, read-out: EC50 of diltiazem treatment of K+ induced constricted arteries, Day 1, +Oxy Hb", "value": "0.95 ± 0.14", "unit": "µM"},
      {"measurement": "EC50", "setting": "[3]; Oryctolagus cuniculus, B164, 24 h, read-out: EC50 of diltiazem treatment of K+ induced constricted arteries, Day 1, −Oxy Hb", "value": "0.76 ± 0.07", "unit": "µM"},
      {"measurement": "EC50", "setting": "[3]; Oryctolagus cuniculus, B164, 72 h, read-out: EC50 of diltiazem treatment of K+ induced constricted arteries, Day 3, +Oxy Hb", "value": "1.07 ± 0.06", "unit": "µM"},
      {"measurement": "EC50", "setting": "[3]; Oryctolagus cuniculus, B164, 72 h, read-out: EC50 of diltiazem treatment of K+ induced constricted arteries, Day 3, −Oxy Hb", "value": "0.78 ± 0.12", "unit": "µM"},
      {"measurement": "EC50", "setting": "[3]; Oryctolagus cuniculus, B164, 120 h, read-out: EC50 of diltiazem treatment of K+ induced constricted arteries, Day 5, +Oxy Hb", "value": "16.9 ± 6.9", "unit": "µM"},
      {"measurement": "EC50", "setting": "[3]; Oryctolagus cuniculus, B164, 120 h, read-out: EC50 of diltiazem treatment of K+ induced constricted arteries, Day 5, −Oxy Hb", "value": "1.1 ± 0.1", "unit": "µM"},
      {"measurement": "reduction of K+-induced constriction", "setting": "[3]; […], diltiazem 1 mmol/L, 60 mmol/L K+", "value": "99.7±0.4", "unit": "%"},
      {"measurement": "pressure-induced constriction at 100 mmHg", "setting": "[4]; arteries from control animals, diltiazem 50 μmol/L", "value": "abolished"}
    ]},
    {"compound": "ω-Agatoxin IVA", "values": [
      {"measurement": "peak inward currents at +20 mV", "setting": "[5]; SAH myocytes, 100 nmol/L", "value": "did not alter"}
    ]},
    {"compound": "ω-Conotoxin GVIA", "values": [
      {"measurement": "peak inward currents at +20 mV", "setting": "[5]", "value": "did not alter"}
    ]}
  ]
}
